Experimental data as given in ChEMBL document CHEMBL1151350, “Uterotonic effect of Evodia rutaecarpa alkaloids” (1980).
The source made the active and inactive calls. The rule behind the calls is not given here.

How the values were obtained:
Rattus norvegicus [1] = species on record: Rattus norvegicus; assay: In virto uterotonic activity in Sprague-Dawley rat uterus assessed as contraction at 20 ug/ml; format: functional, tissue-based
[2] = In virto uterotonic activity in Sprague-Dawley rat uterus assessed as contraction; format: functional
[3] = In virto uterotonic activity in Sprague-Dawley rat uterus expressed as g-force unit; format: functional
Rattus norvegicus [4] = assay: In vivo uterotonic activity in iv dosed estrous Sprague-Dawley rat uterus assessed as contraction by sponge tipped catheter method; format: functional
Rattus norvegicus [5] = assay: In vivo uterotonic activity in estrous Sprague-Dawley rat uterus assessed as maximum peak contraction at 2400 ug/kg, iv within 20 mins by sponge tipped catheter method; format: functional
Rattus norvegicus [6] = species on record: Rattus norvegicus; assay: In virto uterotonic activity in Sprague-Dawley rat uterus assessed as contraction in presence of methysergide; format: functional, tissue-based
Rattus norvegicus [7] = species on record: Rattus norvegicus; assay: In virto uterotonic activity in Sprague-Dawley rat uterus assessed as contraction in presence of atropine; format: functional, tissue-based

Structure (SMILES): CN1c2ccccc2C(=O)N2CCc3c([nH]c4ccccc34)[C@@H]21
- Activity (Rattus norvegicus [1]): inactive

Structure (SMILES): Cl.O=c1c2ccccc2nc2n1CCc1c-2[nH]c2ccccc12 [RUTAECARPINE HYDROCHLORIDE]
- Activity [2]: <1 µg/mL
- Activity [3]: 0.72 g

Structure (SMILES): C[n+]1c2n(c(=O)c3ccccc31)CCc1c-2[nH]c2ccccc12.[Cl-] [DEHYDROEVODIAMINE CHLORIDE]
- Activity [2]: 0.6 µg/mL
- Activity [3]: 2.15 g
- Activity (Rattus norvegicus [4]): Dose-dependent effect
- Activity (Rattus norvegicus [4]; record 2): 80 µg/kg
- Activity (Rattus norvegicus [5]): 25.3 mmHg
- Activity (Rattus norvegicus [6]): Active
- Activity (Rattus norvegicus [7]): Active
